Entries after “also recorded” stand apart in the source; their conditions may differ.
Assays:
[1] = tested on: human breast cancer cell line (MDA MB 231); experiment: MTT cytotoxicity assay, breast cancer cell line; assay type: cell-based; conditions: Homo sapiens, MDA-MB-231, read-out: EC50/μM Breast MDA MB231
Description: (§1) The compounds include those whose preparations are described above and compounds made by preparative methods corresponding to the methods described above.
(§2) Compounds were diluted over a range of concentrations and added to cells over 1 to 3 days. The cytotoxity was determined using a MTT assay at the end of each experiment.

prostrate PC3 xenograft = experiment: Mouse xenograft of human cancer, prostate tumour volume; assay type: in vivo; conditions: daily dosing, CPF31 at 5 and 10 μM (3 and 6 μg/ml), gemcitabine at highest non-toxic concentration
Description: (§3) Mice were dosed daily at a range of concentrations (0.01-10 μM) and tumour volume assessed versus control.

colon HT115 xenograft = experiment: Mouse xenograft of human cancer, colon tumour volume; assay type: in vivo; conditions: for reducing colon tumour volume relative to control: daily dosing, CPF31 at 5 and 10 μM (3 and 6 μg/ml), gemcitabine at highest non-toxic concentration
Description: as §3

[2] = Toxicity in mouse xenograft model (body mass loss, incident-free survival)
Description: as §3
(§4) Kaplan-Meier statistics were computed regarding incident-free survival.

[3] = tested on: human prostate cancer cell line (PC-3); experiment: MTT cytotoxicity assay, prostate cancer cell line; assay type: cell-based; conditions: Homo sapiens, read-out: EC50/μM Prostate PC-3
Description: as §1, §2

[4] = tested on: human colon cancer cell line (HT115); experiment: MTT cytotoxicity assay, colon cancer cell line; assay type: cell-based; conditions: for EC50: Homo sapiens, HT115, read-out: EC50/μM Colon HT115, MTT assay, compounds added to cells over 1 to 3 days; for concentration found to be active in vitro, colon cell line: same colon cell line (HT115)
Description: as §1, §2

[5] = in vivo, 13 day
Description: as §3, §4

| SMILES | EC50 [1] | reducing prostate tumour volume relative to control (prostrate PC3 xenograft) | activity in reducing colon tumour volume in vivo at 5 μM (FIG. 4) (colon HT115 xenograft; 5 μM, day 24, versus Gemzar) | reducing colon tumour volume relative to control (colon HT115 xenograft) | animals showing serious toxicity (10% body mass loss), day 10 ([2]; 5 and 10 μM groups combined, day 10) | animals showing serious toxicity (10% body mass loss), day 11, collectively ([2]; 5 and 10 μM groups combined, day 11) | animals showing serious toxicity (10% body mass loss), day 13 ([2]; 5 and 10 μM groups combined, day 13) | toxicity compared with gemcitabine (Gemzar, GMZ) ([2]; mouse xenograft, weight loss based, Kaplan-Meier / Cox analysis, listed as CPF31) | EC50 [3] | EC50 [4] | concentration found to be active in vitro, colon cell line [4] | toxic concentration in mouse xenograft (FIG. 1) [5] |
| --- | --- | --- | --- | --- | --- | --- | --- | --- | --- | --- | --- | --- |
| C[C@H](NP(=O)(OC[C@H]1O[C@@H](n2ccc(N)nc2=O)C(F)(F)C1O)Oc1ccccc1)C(=O)OCc1ccccc1 (stereo partly drawn) [Example 31, Gemcitabine-[phenyl-(benzoxy-L-alaninyl)]-phosphate] | 42.6 µM | significantly effective | greater activity | significantly effective | 3 animals | 1 animals | 1 animals | significantly less toxic; also recorded: substantially lower toxicity; also recorded: far less toxic | 0.22 µM | 5.7 µM | 5 µM | – |
| Nc1ccn([C@@H]2O[C@H](CO)[C@@H](O)C2(F)F)c(=O)n1 [Example G, gemcitabine, reference compound] | 2.8 µM | not effective | – | not effective | – | – | – | – | 3.12 µM | 606 µM | 600 µM | above 1 μM |
